Consider two compounds from patent US7217865B2, “Transgenic high tryptophan plants” (Monsanto Technology LLC, priority 2001, dated 2007).

Data set [1] deals with Agrobacterium tumefaciens anthranilate synthase variant S51F, SEQ ID NO:60 (Agrobacterium fabrum, UniProt A9CI26, S51F). The experiment in a line: Anthranilate synthase enzyme assay and kinetic analysis, S51F mutant. In kind it is biochemical. The text has this:
(§1) Site directed mutagenesis was used to generate ten single amino acid substitutions six sites. The mutations were introduced into the Agrobacterium tumefaciens AS in pMON34705 using the QuikChange™ Site-Directed Mutagenesis Kit (Stratagene). The primers used for site directed mutagenesis were SEQ ID NO:9–42 (FIG. 7; F=forward, R=reverse). Each primer sequence is specific for alteration of the nucleic acid at a specific location in the sequence and thus changing the encoded codon to code for a new amino acid. For example, S51C designates a change from serine to cysteine at amino acid position 51 in the Agrobacterium tumefaciens AS peptide sequence.
(§2) Following mutagenesis the sequence of the entire gene was reconfirmed and the variants expressed and purified from E. coli as described below for the wild type enzyme. The resultant plasmids comprising mutant Agrobacterium tumefaciens AS are suitably cloned into a plasmid for overproduction of protein using the T7 expression system as described in Example 1.
(§3) Agrobacterium tumefaciens AS wild type and mutant enzymes were expressed in E. coli as described in Example 1. The purification of all the Agrobacterium tumefaciens AS enzymes, including wild type and mutants therof, was performed at 4° C. The cells (approximate wet weight of 1 g) were suspended in 20 ml of purification buffer (50 mM potassium phosphate, pH […], 10 mM 2-mercaptoethanol, 10% glycerol) and lysed by ultrasonication (Branson sonifier Cell Disruptor, W185). Supernatant was collected after centrifugation of the homogenate at 20,000× g for 15 min. The supernatant was subjected to ammonium sulfate fractionation (30 to 65% saturation). The precipitate was collected after centrifugation at 20,000× g for […] and dissolved in 3 ml of the purification buffer and then loaded as a whole on an Econo-Pac 10DG desalting column, pre-equilibrated with the same buffer. Fractions containing the enzyme were detected by the developed assay and pooled. The pooled enzyme (4.3 mls) was loaded on a 10 ml DEAE Sephacel (Pharmacia Biotech) column (1.5×7.5 cm) equilibrated with the same buffer. The column was washed with 30 ml of the purification buffer and the enzyme was eluted with 30 ml of 50 mM NaCl in the same buffer. Fractions containing high AS activity were pooled and precipitated by 65% ammonium sulfate saturation and isolated and desalted as above. Fractions containing the enzyme were pooled and stored at −80° C.
(§4) The standard assay for Agrobacterium tumefaciens AS was performed at 25° C. in an assay buffer containing 100 mM potassium phosphate, pH 7.0, 1 0 mM MgCl2, 1 mM dithiothreitol, 200 μM chorismate and 10 mM L-glutamine. The reaction was started by adding 30 μl of enzyme to the reaction mixture and mixing. The formation of anthranilate was directly monitored by the absorbance increase at […] for 3 min. Initial rate of reaction was calculated as unit absorbance increase per second based on the slope of the absorbance change over the reaction time. Km for chorismate (Km^Cho) was determined in the total volume of 1 ml assay buffer containing 100 mM potassium phosphate, pH 7.0, 10 mM MgCl2, 1 mM dithiothreitol with 10 mM L-glutamine and varying the concentration of chorismate between 2.5–100 μM chorismate. […] Kinetic parameters and IC50 of AS were calculated after fitting the data to a non-linear regression program (GraFit).

Data set [2] has as its target Agrobacterium tumefaciens anthranilate synthase variant S51C, SEQ ID NO:61 (Agrobacterium fabrum, UniProt A9CI26, S51C). The experiment in a line: Anthranilate synthase enzyme assay and kinetic analysis, S51C mutant. Type of data set: biochemical.
Text: as §1, §2, §3, §4

For data set [3], the target named is Agrobacterium tumefaciens anthranilate synthase variant N52F, SEQ ID NO:62 (Agrobacterium fabrum, UniProt A9CI26, N52F). The experiment in a line: Anthranilate synthase enzyme assay and kinetic analysis, N52F mutant. Type of data set: biochemical.
Text: as §1, §2, §3, §4

For data set [4], the target named is Agrobacterium tumefaciens anthranilate synthase variant V48Y, SEQ ID NO:59 (Agrobacterium fabrum, UniProt A9CI26, V48Y). The experiment in a line: Anthranilate synthase enzyme assay and kinetic analysis, V48Y mutant. In kind it is biochemical.
Text: as §1, §2, §3, §4

Data set [5] deals with Agrobacterium tumefaciens anthranilate synthase (AgroAS), wild type, SEQ ID NO:4 (Agrobacterium fabrum, UniProt A9CI26). The experiment in a line: Anthranilate synthase enzyme assay and kinetic analysis, wild type. Type of data set: biochemical. The procedure: as §3
The standard assay for Agrobacterium tumefaciens AS was performed at 25° C. in an assay buffer containing 100 mM potassium phosphate, pH 7.0, 1 0 mM MgCl2, 1 mM dithiothreitol, 200 μM chorismate and 10 mM L-glutamine. The reaction was started by adding 30 μl of enzyme to the reaction mixture and mixing. The formation of anthranilate was directly monitored by the absorbance increase at […] for 3 min. Initial rate of reaction was calculated as unit absorbance increase per second based on the slope of the absorbance change over the reaction time. Km for chorismate (Km^Cho) was determined in the total volume of 1 ml assay buffer containing 100 mM potassium phosphate, pH 7.0, 10 mM MgCl2, 1 mM dithiothreitol with 10 mM L-glutamine and varying the concentration of chorismate between 2.5–100 μM chorismate. The Km for glutamine (Km^Gln) was determined in the total volume of 1 ml assay buffer containing 100 mM potassium phosphate, pH 7.0, 10 mM MgCl2, 1 mM dithiothreitol with 200 μM chorismate and varying the concentration of L-glutamine between 0.1–2 mM L-glutamine. IC50 for tryptophan (IC50TrP) was determined with in the total volume of 1 ml assay buffer containing 100 mM potassium phosphate, pH 7.0, 10 mM MgCl2, 1 mM dithiothreitol, 10 mM L-glutamine, 200 μM chorismate and varying the concentration of L-tryptophan between 0.1–10 mM L-tryptophan. Kinetic parameters and IC50 of AS were calculated after fitting the data to a non-linear regression program (GraFit).

In data set [6] the target is Agrobacterium tumefaciens anthranilate synthase variant S50K, SEQ ID NO:69 (Agrobacterium fabrum, UniProt A9CI26, S50K). The experiment in a line: Anthranilate synthase enzyme assay and kinetic analysis, S50K mutant. In kind it is biochemical.
Text: as §1, §2, §3, §4

The target of data set [7] is Agrobacterium tumefaciens anthranilate synthase variant V48F, SEQ ID NO:58 (Agrobacterium fabrum, UniProt A9CI26, V48F). The experiment in a line: Anthranilate synthase enzyme assay and kinetic analysis, V48F mutant. In kind it is biochemical.
Text: as §1, §2, §3, §4

Data set [8] has as its target Agrobacterium tumefaciens anthranilate synthase variant P293G, SEQ ID NO:64 (Agrobacterium fabrum, UniProt A9CI26, P293G). The experiment in a line: Anthranilate synthase enzyme assay and kinetic analysis, P293G mutant. Type of data set: biochemical.
Text: as §1, §2, §3, §4

Data set [9] concerns the target Agrobacterium tumefaciens anthranilate synthase variant P293A, SEQ ID NO:63 (Agrobacterium fabrum, UniProt A9CI26, P293A). The experiment in a line: Anthranilate synthase enzyme assay and kinetic analysis, P293A mutant. In kind it is biochemical.
Text: as §1, §2, §3, §4

The next data set concerns NC(=O)CC[C@H](N)C(=O)O. The experiment in a line: Anthranilate synthase enzyme assay and kinetic analysis, V48Y mutant. In kind it is biochemical, Agrobacterium tumefaciens. Particulars: other: V48Y, pH 7.0, 200 μM chorismate, 0.1–2 mM L-glutamine, 25.0 °C.
Text: as §1, §2, §3, §4

Data set [10] has as its system C=C(O[C@@H]1C=C(C(=O)O)C=C[C@H]1O)C(=O)O. The description is as above. Type of data set: biochemical, Agrobacterium tumefaciens. Particulars: other: V48Y, pH 7.0, 10 mM L-glutamine, 2.5–100 μM chorismate, 25.0 °C.
Text: as §1, §2, §3, §4

Read-outs that look alike come from different tables or passages of the source.

As for `N[C@@H](Cc1c[nH]c2ccccc12)C(=O)O` [L-tryptophan], the IC50 in data set [1] is above 32000 µM; in [2] it was 1500 µM; in data set [3] it was 41 µM; in [4] it was 650 µM; in data set [5], 5 µM; in data set [5] (read-out: IC50^trp, wild type, Table J (5-MT resistant clones)) it was 5 µM. Also, the IC50 amounted to 0.1 µM in data set [6], 150 µM in [7], 17 µM in data set [8] and 14 µM in data set [9].

With “Agrobacterium tumefaciens anthranilate synthase variant V48Y, SEQ ID NO:59 (Agrobacterium fabrum str. C58; V48Y)”, the Km in the data set with NC(=O)CC[C@H](N)C(=O)O came out at 100 µM. In data set [10], the Michaelis-Menten constant (Km) worked out at 4.2 µM, the kcat amounted to 0.18 s⁻¹ and the kcat/Km came to 42800 M⁻¹ s⁻¹.
